Assay results: ChEMBL document CHEMBL4270540, “Collagen Prolyl 4-Hydroxylase as a Therapeutic Target” (J Med Chem, 2018)

Tests used:
[1] = Inhibition of collagen prolyl 4-hydroxylase (unknown origin); set-up: species or system Homo sapiens
[2] = Inhibition of chicken collagen prolyl 4-hydroxylase; set-up: species or system Gallus gallus
[3] = Inhibition of collagen prolyl 4-hydroxylase (unknown origin) using 2-ketoglutarate as co-factor assessed as formation of [14C]succinate by ion-exchnage chromatographic method; set-up: species or system Homo sapiens

Question: For COc1ccc(S(=O)(=O)NC(=O)c2ccc(C(=O)O)nc2)cc1, which IC50 [1] is on record?
Answer: The IC50 was 1 µM.

Question: Which IC50 [2] does the source give for O=C(O)c1ncc2ccccc2c1O here?
Answer: Its IC50 is 0.19 µM.

Question: For O=C(O)c1nnc2ccccc2c1O, which IC50 [2] is on record?
Answer: Its IC50 is 0.02 µM.

Question: Which IC50 [3] does the source give for C[C@H](NC(=O)C(=O)O)C(=O)O here?
Answer: Its IC50 is 38.2 µM.

Question: Which IC50 [3] does the source give for C[C@@H](NC(=O)C(=O)O)C(=O)O here?
Answer: The IC50 was 621 µM.

Question: For CC(NC(=O)C(=O)O)C(=O)O (racemic), which IC50 [3] is on record?
Answer: Its IC50 is 90.7 µM.

Question: For O=C(O)CNC(=O)C(=O)O [N-OXALYLGLYCINE], which IC50 [3] is on record?
Answer: Its IC50 is 2.89 µM.

Question: With O=C(O)c1ccc(C(=O)O)nc1 [PYRIDINE-2,5-DICARBOXYLIC ACID] as the molecule, how does the IC50 [1] read?
Answer: Its IC50 is 5.5 µM.
